Laboratory results taken from US20190223437A1, “ACTIVE COMPOUND COMBINATIONS COMPRISING A 5-SUBSTITUTED IMIDAZOLE DERIVATIVE” (BAYER CROPSCIENCE AKTIENGESELLSCHAFT, priority 2016, published 2019).
Read-outs that look alike come from different tables or passages of the source. Marks after values point to notes of the source that are not given here.

Assay: Measurement of Log P values by HPLC on reversed phase columns (EEC directive 79/831 Annex V.A8)
Format: physicochemical
[1] = method [a]: LC-UV, acidic range, 0.1% formic acid in water and acetonitrile as eluent, Table 1, compounds of formula (I)

| LogP | SMILES | other results |
| --- | --- | --- |
| 2.55^[a] | OC(Cc1ccc(Cl)cc1F)(Cn1cncc1Br)C1(Cl)CC1 (centres unmarked) [Example I-30] | – |
| 2.10^[a] | OC(Cc1ccccc1F)(Cn1cncc1Br)C1(Cl)CC1 (racemic) [Example I-33] | – |
| 1.22^[a] | Cc1cncn1CC(O)(Cc1cccnc1Cl)C1(Cl)CC1 (centres unmarked) [Example I-10] | – |
| 2.73^[a] | CC(C)(C)C(O)(Cc1ccccc1F)Cn1cncc1C#N (centres unmarked) [Example I-138] | – |
| 2.57^[a] | N#Cc1cncn1CC(O)(Cc1cccc(F)c1F)C1CCC1 (centres unmarked) [Example I-148] | – |
| 2.44^[a] | CC(C)C(O)(Cc1ccc(F)cc1)Cn1cncc1C#N (centres unmarked) [Example I-162] | – |
| 3.31^[a] | N#Cc1cncn1CC(O)(Cc1cccc(Cl)c1Cl)C1CCC1 (racemic) [Example I-85] | – |
| 2.23^[a] | OC(Cc1ccc(F)c(F)c1)(Cn1cncc1Cl)C1(Cl)CC1 (centres unmarked) [Example I-110] | – |
| 2.46^[a] | N#Cc1cncn1CC(O)(Cc1ccccc1F)C1CCC1 (centres unmarked) [Example I-137] | – |
| 2.86^[a] | N#Cc1cncn1CC(O)(Cc1cc(F)cc(F)c1)C1(Cl)CC1 (centres unmarked) [Example I-156] | – |
| 2.40^[a] | CC(C)C(O)(Cc1ccccc1F)Cn1cncc1C#N (centres unmarked) [Example I-139] | – |
| 2.69^[a] | OC(Cc1cccc(Cl)c1Cl)(Cn1cncc1Cl)C1(Cl)CC1 (racemic) [Example I-66] | – |
| 3.52^[a] | N#Cc1cncn1CC(O)(Cc1ccc(Br)cc1Cl)C1(Cl)CC1 (racemic) [Example I-41] | – |
| 2.78^[a] | N#Cc1cncn1CC(O)(Cc1ccc(F)c(F)c1F)C1CCC1 (centres unmarked) [Example I-104] | – |
| 2.35^[a] | Cc1cccc(CC(O)(Cn2cncc2Cl)C2(Cl)CC2)c1F (centres unmarked) [Example I-143] | – |
| 2.18^[a] | OC(Cc1cc(Cl)ncc1Cl)(Cn1cncc1Cl)C1(Cl)CC1 (centres unmarked) [Example I-17] | – |
| 1.50^[a] | Nc1cncn1CC(O)(Cc1ccccc1Cl)C1(Cl)CC1 (racemic) [Example I-78] | – |
| 2.46^[a] | Cc1cc(F)ccc1CC(O)(Cn1cncc1Cl)C1(Cl)CC1 (centres unmarked) [Example I-155] | – |
| 1.89^[a] | C#Cc1cncn1CC(O)(Cc1ccccc1F)C1(Cl)CC1 (racemic) [Example I-36] | – |
| 3.25^[a] | N#Cc1cncn1CC(O)(Cc1cccc(Cl)c1Cl)C1(Cl)CC1 (racemic) [Example I-49] | – |
| 2.82^[a] | COC(=O)c1cncn1CC(O)(Cc1ccccc1Cl)C1(Cl)CC1 (centres unmarked) [Example I-01] | – |

| LogP | SMILES | other results |
| --- | --- | --- |
| – | N#Cc1cncn1CC(O)(Cc1ccc(-c2ccccc2)cc1)C1(Cl)CC1 (racemic) [Example I-63] | LogP [1]: 3.68^[a] |
| 3.13^[a] | N#Cc1cncn1CC(O)(Cc1ccccc1I)C1(Cl)CC1 (centres unmarked) [Example I-166] | – |
| 2.75^[a] | N#Cc1cncn1CC(O)(Cc1ccc(F)cc1)C1(Cl)CC1 (centres unmarked) [Example I-157] | – |
| 2.35^[a] | N#Cc1cncn1CC(O)(Cc1ccc(F)cc1)C1(F)CC1 (racemic) [Example I-100] | – |
| 3.55^[a] | CC(C)(C)CC(O)(Cc1ccccc1Cl)Cn1cncc1C#N (racemic) [Example I-83] | – |
| 4.54^[a] | N#Cc1cncn1CC(O)(Cc1ccc(Oc2ccc(Cl)cc2)cc1Cl)C1(Cl)CC1 (racemic) [Example I-53] | – |
| 2.57^[a] | N#Cc1cncn1CC(O)(Cc1ccccc1Cl)C1CC1 (racemic) [Example I-80] | – |
| 2.98^[a] | N#Cc1cncn1CC(O)(Cc1ccc(F)cc1)C1(Cl)CCC1 (centres unmarked) [Example I-159] | – |
| 1.86^[a] | OC(Cc1ccccc1F)(Cn1cncc1C1CC1)C1(Cl)CC1 (racemic) [Example I-37] | – |
| 3.60^[a] | O=C(Cc1ccccc1F)c1cncn1CC(O)(Cc1ccccc1F)C1(Cl)CC1 (centres unmarked) [Example I-134] | – |
| 3.31^[a] | C=CCOC(Cc1ccc(Cl)cc1F)(Cn1cncc1Cl)C1(Cl)CC1 (centres unmarked) [Example I-123] | – |
| 1.49^[a] | NC(=O)c1cncn1CC(O)(Cc1ccc(Cl)cc1F)C1CC1 (centres unmarked) [Example I-116] | – |
| 2.47^[a] | OC(Cc1ccc(F)cc1Cl)(Cn1cncc1Cl)C1(Cl)CC1 (centres unmarked) [Example I-08] | – |
| 2.62^[a] | OC(Cc1ccccc1C(F)(F)F)(Cn1cncc1Cl)C1(Cl)CC1 (racemic) [Example I-89] | – |
| 1.52^[a] | OC(Cc1ccncc1Cl)(Cn1cncc1Cl)C1(Cl)CC1 (racemic) [Example I-72] | – |
| 2.08^[a] | CSc1cncn1CC(O)(Cc1ccccc1Cl)C1(Cl)CC1 (centres unmarked) [Example I-22] | – |
| 1.67^[a] | COc1cncn1CC(O)(Cc1ccccc1F)C1(Cl)CC1 (racemic) [Example I-35] | – |
| 3.13^[a] | N#Cc1cncn1CC(O)(Cc1ccc(Cl)cc1F)C1CCC1 (centres unmarked) [Example I-117] | – |
| 1.62^[a] | N#Cc1cncn1CC(O)(Cc1ccncc1F)C1(Cl)CC1 (centres unmarked) [Example I-163] | – |
| 1.59^[a] | N#Cc1cncn1CC(O)(Cc1ccnnc1Cl)C1(Cl)CC1 (centres unmarked) [Example I-168] | – |
| 2.18^[a] | N#Cc1cncn1CC(O)(Cc1ccncc1C(F)(F)F)C1(Cl)CC1 (racemic) [Example I-92] | – |

| LogP | SMILES | other results |
| --- | --- | --- |
| 3.00^[a] | N#Cc1cncn1CC(O)(Cc1ccc(F)cc1Cl)C1(Cl)CC1 (centres unmarked) [Example I-154] | – |
| 2.53^[a] | N#Cc1cncn1CC(O)(Cc1ccccc1Cl)C1(F)CC1 (racemic) [Example I-98] | – |
| 2.17^[a] | OC(Cc1cccc(F)c1F)(Cn1cncc1Cl)C1(Cl)CC1 (centres unmarked) [Example I-147] | – |
| 1.94^[a] | OC(Cc1ccccc1Cl)(Cn1cncc1F)C1(Cl)CC1 (centres unmarked) [Example I-16] | – |
| 3.31^[a] | COC(Cc1ccc(Cl)cc1F)(Cn1cncc1C#N)C1CC1 (centres unmarked) [Example I-121] | – |
| 3.55^[a] | N#Cc1cncn1CC(O)(Cc1cc(Cl)cc(Cl)c1)C1(Cl)CC1 (racemic) [Example I-58] | – |
| 2.56^[a] | N#Cc1cncn1CC(O)(Cc1ccc(F)cc1)C1CCC1 (centres unmarked) [Example I-160] | – |
| 2.73^[a] | N#Cc1cncn1CC(O)(Cc1cc(Br)ncc1Br)C1(Cl)CC1 (racemic) [Example I-47] | – |
| 3.10^[a] | N#Cc1cncn1CC(O)(Cc1ccc(Cl)cc1)C1(Cl)CC1 (racemic) [Example I-64] | – |
| 1.66^[a] | N#CCc1cncn1CC(O)(Cc1ccccc1Cl)C1(Cl)CC1 (centres unmarked) [Example I-21] | – |
| – | OC(Cc1ccccc1Cl)(Cn1cncc1Cl)C1(Cl)CC1 (centres unmarked) [Example I-02] | LogP [1]: 2.32; LogP (method [c]: LC-UV, acidic range, 0.1% phosphoric acid and acetonitrile as eluent, Table 1): 2.00 |
| 1.75^[a] | Cc1cncn1CC(O)(C(F)c1ccccc1Cl)C1(Cl)CC1 (centres unmarked) [Example I-13] | – |
| 2.67^[a] | CC(C)C(O)(Cc1ccccc1Cl)Cn1cncc1C#N (racemic) [Example I-82] | – |
| 1.56^[a] | OC(Cc1cccnc1Cl)(Cn1cncc1Br)C1(Cl)CC1 (centres unmarked) [Example I-25] | – |
| 2.47^[a] | CC(C)C(O)(Cc1cccc(F)c1F)Cn1cncc1C#N (centres unmarked) [Example I-149] | – |
| 2.69^[a] | Cc1ccc(CC(O)(Cn2cncc2Cl)C2(Cl)CC2)c(C)c1 (racemic) [Example I-68] | – |
| 2.84^[a] | N#Cc1cncn1CC(O)(Cc1ccccc1Cl)CC1CC1 (racemic) [Example I-84] | – |
| 1.94^[a] | N#Cc1cncn1CC(O)(Cc1ccncc1Br)C1(Cl)CC1 (racemic) [Example I-46] | – |
| 2.02^[a] | OC(Cc1c(Cl)ccnc1Cl)(Cn1cncc1Cl)C1(Cl)CC1 (centres unmarked) [Example I-11] | – |
| 2.78^[a] | N#Cc1cncn1CC(O)(Cc1ccc(Cl)cc1F)C1(F)CC1 (racemic) [Example I-96] | – |
| 2.01^[a] | OC(Cc1cc(F)ncc1Cl)(Cn1cncc1Cl)C1(Cl)CC1 (centres unmarked) [Example I-18] | – |

| LogP | SMILES | other results |
| --- | --- | --- |
| 2.93^[a] | COc1ccccc1CC(O)(Cn1cncc1C#N)C1(Cl)CC1 (racemic) [Example I-55] | – |
| 2.17^[a] | OC(Cn1cncc1Cl)(C(F)c1ccccc1Cl)C1(Cl)CC1 (centres unmarked) [Example I-05] | – |
| 2.47^[a] | N#Cc1cncn1CC(O)(Cc1ccnc(Cl)c1Cl)C1(Cl)CC1 (racemic) [Example I-50] | – |
| 2.33^[a] | Cc1ccccc1CC(O)(Cn1cncc1Cl)C1(Cl)CC1 (racemic) [Example I-71] | – |
| 3.24^[a] | N#Cc1cncn1CC(O)(Cc1ccc(Br)cc1F)C1(Cl)CC1 (racemic) [Example I-42] | – |
| 2.07^[a] | OC(Cc1ccccc1F)(Cn1cncc1Cl)C1(Cl)CC1 (centres unmarked) [Example I-32] | – |
| 2.25^[a] | N#Cc1cncn1CC(O)(Cc1ccnc(Cl)c1F)C1(Cl)CC1 (centres unmarked) [Example I-152] | – |
| 2.78^[a] | N#Cc1cncn1CC(O)(Cc1ccc(F)c(F)c1)C1(Cl)CC1 (centres unmarked) [Example I-109] | – |
| 2.13^[a] | OC(Cc1ccc(F)cc1)(Cn1cncc1Cl)C1(Cl)CC1 (centres unmarked) [Example I-158] | – |
| 2.08^[a] | OC(Cc1ccnc(Cl)c1Cl)(Cn1cncc1Cl)C1(Cl)CC1 (racemic) [Example I-67] | – |
| 2.23^[a] | OC(Cc1cc(Cl)nc(Cl)c1)(Cn1cncc1Cl)C1(Cl)CC1 (racemic) [Example I-74] | – |
| 2.38^[a] | N#Cc1cncn1CC(O)(Cc1cc(F)ncc1Cl)C1(Cl)CC1 (centres unmarked) [Example I-165] | – |
| 2.78^[a] | CC(C)C(O)(Cc1ccc(F)c(F)c1F)Cn1cncc1C#N (centres unmarked) [Example I-105] | – |
| 2.82^[a] | N#Cc1cncn1CC(O)(C(F)c1ccccc1Cl)C1(Cl)CC1 (centres unmarked) [Example I-24] | – |
| 2.64^[a] | OC(Cc1ccc(Br)cc1F)(Cn1cncc1Cl)C1(Cl)CC1 (racemic) [Example I-44] | – |
| 2.73^[a] | CCOC(=O)c1cncn1CC(O)(Cc1ccccc1F)C1(Cl)CC1 (centres unmarked) [Example I-135] | – |
| 2.01^[a] | N#Cc1cncn1CC(O)(Cc1cccnc1Cl)C1(Cl)CC1 (centres unmarked) [Example I-26] | – |
| 2.62^[a] | N#Cc1cncn1CC(O)(Cc1cc(Cl)ncc1Cl)C1(Cl)CC1 (racemic) [Example I-56] | – |
| 2.52^[a] | CC(C)C(O)(Cc1ccc(F)cc1F)Cn1cncc1C#N (centres unmarked) [Example I-128] | – |
| 2.87^[a] | CC1(C(O)(Cc2ccccc2Cl)Cn2cncc2C#N)CC1 (racemic) [Example I-79] | – |
| 1.57^[a] | OC(Cc1cccnc1Cl)(Cn1cncc1Cl)C1(Cl)CC1 (centres unmarked) [Example I-07] | – |

| SMILES | LogP | other results |
| --- | --- | --- |
| OC(Cc1ccc(Cl)cc1F)(Cn1cncc1Cl)C1(Cl)CC1 (single isomer, unassigned) [Example I-113] | 2.54^[a] | – |
